The results in this text go back to patent publication US20260207720A1, “COMPOSITIONS AND METHODS FOR TREATING FUNGAL INFECTIONS” (MUCPharm Pty Ltd, priority 2022, published 2026).

The subject of the assay is Mucormycete group (Rhizopus microspores, Fusarium solani cx, Rhizopus arrhizus and Candida krusei QC). In words: Susceptibility assay of bromelain and acetylcysteine alone or together (Example 1). Format: cell-based. To be noted: in isolation, R. microsporus, read-out: MIC required to inhibit Mucormycete growth. As to the method: Unless otherwise described, fungal cultures were grown on potato dextrose agar plates at 35° C. until mature (appearance of conidia) and used to prepare suspensions in sterile water. Suspensions were diluted in RPMI 1:60. These suspensions were then added in equal volume to solutions containing the candidate species described above and incubated at 35° C. for 24 hr. Plates were then analysed for fungal growth inhibition and MIC values determined. […] Initial tests were conducted on one strain of Rhizopus microsporus, one strain of Rhizopus arrhizus and one strain of Candida krusei QC, all sourced clinically.

Converted amounts (≈) assume the structure as drawn.

For `CC(=O)N[C@@H](CS)C(=O)O` [Acetylcysteine, N-acetylcysteine], the MIC was 10 µg/mL (≈ 61.3 µM).
